Tested on: FCA-induced mechanical hypersensitivity
Experiment: Guinea Pig FCA Model (mechanical hyperalgesia, paw pressure)
Assay type: in vivo
Conditions: male Dunkin-Hartley guinea-pigs, FCA intraplantar left paw, oral dosing 24 hours later, reading 1 hour after drug administration; Compound A 1.5 mg/kg, Compound B 1 mg/kg
Protocol: 100 μl of 1 mg/ml FCA was injected intraplantar into the left paw of 6 groups of 6 male Dunkin-Hartley guinea-pigs (average weight 330 g) in order to induce inflammation and evoke a mechanical hypersensitivity (Ref. Stein, C., Millan, M. J., and Herz, A., Unilateral inflammation of the hind paw in rats as a model of prolonged noxious stimulation: alterations in behaviour and nociceptive thresholds, Pharmacol. Biochem. Behav., 31 (1988) 445-451). 24 hours later 1.5 mg/kg rofecoxib, 1 mg/kg N-(2-Bromophenyl)-N′-[((R)-1-(5-trifluoromethyl-2-pyridyl)pyrrolidin-3-yl)]urea and a combination of both was administered orally with the vehicle being 1% methylcellulose, the dosing volume being 2 ml/kg and dosing straight into the stomach. The methylcellulose was added gradually to the compound into the pestle and mortar and ground together. The mixtures were then sonnicated for 20 minutes. Behavioural readouts of mechanical hyperalgesia were obtained before FCA adminsitration (naive reading), after FCA but before drug administration (predose reading) and 1 hour after drug administration. […] The readout used was paw withdrawal in response to paw pressure (Ref. Randall L O, Selitto J J. (1957) A method for measurement of analgesic activity on inflammed tissue. Arch Int. Pharmacodyn 61, 409419.) and the end point was paw withdrawal. […]

SMILES | % reversal of mechanical hypersensitivity [%]
O=C(Nc1ccccc1Br)N[C@@H]1CCN(c2ccc(C(F)(F)F)cn2)C1 [Compound B, N-(2-Bromophenyl)-N′-[((R)-1-(5-trifluoromethyl-2-pyridyl)pyrrolidin-3-yl)]urea] | 32.5
CS(=O)(=O)c1ccc(C2=C(c3ccccc3)C(=O)OC2)cc1 [Compound A, rofecoxib] | 30.6

Reference: patent US7390817B2, “Combinations of a vanilloid antagonist and an NSAID for the treatment of pain” (Glaxo Group Limited, priority 2002, dated 2008)
